# Where a name gives a salt, the structure may show the parent alone.
# Assays:
# [1] = system: Plasmodium vivax liver stage (primary human hepatocyte culture)
# Experimental: (§1)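 Dose-response of P. vivax liver stages in primary human hepatocytes, with 8 points (10 uM-[…], v1) or 12 points in duplicate (50 uM-280 pM, v2). Read-out is high-content imaging of schizont net growth area, hypnozoite quantity and hepatic nuclei. EC50 and CC20 (20% nuclei loss) were fitted in CDD Vault from the highest-quality independent experiment; toxic-dose bell-shaped points were masked. '>' marks the highest concentration with less than 50% activity, and ND means a non-sigmoidal curve.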
# [2] = system: primary human hepatocytes; assay: CC20 hepatic nuclei (20% reduction); higher = less toxic
# Experimental: as §1
# [3] = system: Plasmodium vivax liver stage (primary human hepatocyte culture); assay: maximum inhibition of schizont net growth area; higher = more active
# Experimental: as §1
# [4] = P. vivax isolate: Pv458, hepatocyte lot: UBV, assay mode: Radical Cure, 8-day (treatment from day 5 post-infection)
# [5] = P. vivax isolate: Pv836, hepatocyte lot: BGW, assay mode: Radical Cure, 8-day (treatment from day 5 post-infection)
# [6] = P. vivax isolate: Pv728, hepatocyte lot: BGW, assay mode: Radical Cure, 8-day (treatment from day 5 post-infection)
# [7] = P. vivax isolate: Pv357, hepatocyte lot: UBV, assay mode: Radical Cure, 8-day (treatment from day 5 post-infection)
# [8] = P. vivax isolate: Pv668, hepatocyte lot: BGW, assay mode: Radical Cure, 8-day (treatment from day 5 post-infection)
# [9] = P. vivax isolate: Pv914, hepatocyte lot: BGW, assay mode: Prophylactic, 6-day
# [10] = P. vivax isolate: Pv657, hepatocyte lot: BGW, assay mode: Radical Cure, 8-day (treatment from day 5 post-infection)
# [11] = P. vivax isolate: Pv590, hepatocyte lot: UBV, assay mode: Radical Cure, 8-day (treatment from day 5 post-infection)
compound,measurement,setting,value
N#CC(c1ccc(Br)cc1)c1ccc2c(C(F)(F)F)cc(C(F)(F)F)nc2n1 (stereo not given),EC50 hypnozoite quantity,[1]; [4],0.957 µM
same,EC50 schizont net growth area,[1]; [4],1.24 µM
same,CC20 hepatic nuclei,[2]; [4],5.44 µM
same,maximum inhibition,[3]; [4],86%
CCC(C(=O)O)C1CCC(C)C(C(C)C(O)C(C)C(=O)C(CC)C2OC3(C=CC(O)C4(CCC(C)(C5CCC(O)(CC)C(C)O5)O4)O3)C(C)CC2C)O1 (stereo not given) [Salinomycin],EC50 hypnozoite quantity,[1]; [5],0.112 µM
same,EC50 schizont net growth area,[1]; [5],0.0402 µM
same,CC20 hepatic nuclei,[2]; [5],> 10 µM
same,maximum inhibition,[3]; [5],102%
"c1cc(C2CCC3(CC2)OOC2(O3)C3CC4CC(C3)CC2C4)ccc1OCCN1CCOCC1 (stereo not given) [Artefenomel, OZ439]",EC50 hypnozoite quantity,[1]; [6],> 50 µM
same,EC50 schizont net growth area,[1]; [6],6.89 µM
same,CC20 hepatic nuclei,[2]; [6],> 16.7 µM
same,maximum inhibition,[3]; [6],80.3%
"CC(C)(N)CNC(=O)CC1CCC2(CC1)OOC1(O2)C2CC3CC(C2)CC1C3 (stereo not given) [Arterolane, OZ277]",EC50 hypnozoite quantity,[1]; [7],> 10 µM
same,EC50 schizont net growth area,[1]; [7],> 10 µM
same,CC20 hepatic nuclei,[2]; [7],> 10 µM
same,maximum inhibition,[3]; [7],51.4%
O=S1(=O)C=CC2ON=C(c3c(Cl)cccc3Cl)C21 (stereo not given),EC50 hypnozoite quantity,[1]; [8],> 50 µM
same,CC20 hepatic nuclei,[2]; [8],45.7 µM
same,maximum inhibition,[3]; [8],94.8%
O=C(Nc1cccnn1)N1CCC(=Cc2cccc(Oc3ccc(C(F)(F)F)cn3)c2)CC1,EC50 hypnozoite quantity,[1]; [6],> 10 µM
same,EC50 schizont net growth area,[1]; [6],1.23 µM
same,CC20 hepatic nuclei,[2]; [6],> 10 µM
same,maximum inhibition,[3]; [6],99%
CC[C@H]1OC(=O)[C@H](C)C(=O)[C@H](C)[C@@H](O[C@@H]2O[C@H](C)C[C@H](N(C)C)[C@H]2O)[C@](C)(OCC=Cc2cnc3ccccc3c2)C[C@@H](C)C(=O)[C@H](C)[C@H]2N=C(O)O[C@@]21C [Cethromycin],EC50 hypnozoite quantity,[1]; [9],> 10 µM
same,CC20 hepatic nuclei,[2]; [9],> 10 µM
same,maximum inhibition,[3]; [9],63.3%
CN(C(=O)c1cc2c(-c3cncnc3)cccc2[nH]1)c1ccccc1,EC50 hypnozoite quantity,[1]; [10],> 50 µM
same,EC50 schizont net growth area,[1]; [10],3.11 µM
same,CC20 hepatic nuclei,[2]; [10],> 50 µM
same,maximum inhibition,[3]; [10],84.7%
CCC(C(=O)O)C1OC(C(C)C(O)C(C)C(=O)C(CC)C2OC3(C=CC(O)C4(CCC(C)(C5CCC(O)(CC)C(C)O5)O4)O3)C(C)CC2C)C(C)CC1C (stereo not given) [Narasin],EC50 hypnozoite quantity,[1]; [4],0.0646 µM
same,EC50 schizont net growth area,[1]; [4],0.0075 µM
same,CC20 hepatic nuclei,[2]; [4],8.8 µM
same,maximum inhibition,[3]; [4],101%
CN1CCN(c2ccc(Nc3c4ccccc4nc4ccccc34)cc2)CC1,EC50 hypnozoite quantity,[1]; [8],> 50 µM
same,EC50 schizont net growth area,[1]; [8],6.04 µM
same,CC20 hepatic nuclei,[2]; [8],5.55 µM
same,maximum inhibition,[3]; [8],111%
CC[C@H](NC(=O)[C@H](C)NC)C(=O)N1C[C@@H](O)C[C@H]1Cc1c(-c2[nH]c3cc(F)ccc3c2C[C@@H]2C[C@H](O)CN2C(=O)[C@H](CC)NC(=O)[C@H](C)NC)[nH]c2cc(F)ccc12,EC50 hypnozoite quantity,[1]; [8],> 50 µM
same,CC20 hepatic nuclei,[2]; [8],> 5.56 µM
same,maximum inhibition,[3]; [8],73%
CN(Cc1cnc2nc(N)nc(N)c2n1)c1ccc(C(=O)N[C@@H](CCC(=O)O)C(=O)O)cc1 (racemic) [Methotrexate (+/-)],EC50 hypnozoite quantity,[1]; [9],> 10 µM
same,EC50 schizont net growth area,[1]; [9],0.0428 µM
same,CC20 hepatic nuclei,[2]; [9],> 10 µM
same,maximum inhibition,[3]; [9],99.1%
Cc1sc2ncnc(Sc3nc4ccccc4[nH]3)c2c1C,EC50 hypnozoite quantity,[1]; [11],> 50 µM
same,EC50 schizont net growth area,[1]; [11],1.62 µM
same,CC20 hepatic nuclei,[2]; [11],46.9 µM
same,maximum inhibition,[3]; [11],92.9%
CCOc1ccc2nc(C)cc(Nc3ccc(N(C)C)cc3)c2c1,EC50 hypnozoite quantity,[1]; [11],> 50 µM
same,EC50 schizont net growth area,[1]; [11],> 16.7 µM
same,CC20 hepatic nuclei,[2]; [11],16.2 µM
same,maximum inhibition,[3]; [11],84.6%
COc1cccc(C=Cc2nc(=O)c3ccccc3o2)c1OC,EC50 hypnozoite quantity,[1]; [9],> 10 µM
same,CC20 hepatic nuclei,[2]; [9],> 10 µM
same,maximum inhibition,[3]; [9],62.6%
CC(C)(ON=C(C(=O)NC1C(=O)N2C(C(=O)[O-])=C(C[n+]3ccccc3)CSC12)c1csc(N)n1)C(=O)O (stereo not given) [Ceftazidime pentahydrate],EC50 hypnozoite quantity,[1]; [6],> 10 µM
same,EC50 schizont net growth area,[1]; [6],> 10 µM
same,maximum inhibition,[3]; [6],47.9%
CCN(CC)CCCNc1nc(-c2ccc(Cl)cc2)nc2ccccc12,EC50 hypnozoite quantity,[1]; [11],> 50 µM
same,EC50 schizont net growth area,[1]; [11],> 5.56 µM
same,CC20 hepatic nuclei,[2]; [11],40.2 µM
same,maximum inhibition,[3]; [11],99.6%
COc1cc(-c2cc(-c3ccc(S(C)(=O)=O)cc3)cnc2N)ccc1O,EC50 hypnozoite quantity,[1]; [10],> 50 µM
same,EC50 schizont net growth area,[1]; [10],> 16.7 µM
same,CC20 hepatic nuclei,[2]; [10],> 50 µM
same,maximum inhibition,[3]; [10],80.2%
CC(C)(C)n1nc(-c2ccccc2)c2c(N)ncnc21,EC50 hypnozoite quantity,[1]; [10],> 50 µM
same,EC50 schizont net growth area,[1]; [10],> 16.7 µM
same,CC20 hepatic nuclei,[2]; [10],> 50 µM
same,maximum inhibition,[3]; [10],76.7%
C[C@H]1c2cccc(O)c2C(=O)C2=C(O)[C@]3(O)C(=O)C(C(N)=O)=C(O)[C@@H](N(C)C)C3[C@@H](O)C21 (stereo not given in full) [Doxycycline hydrochloride],EC50 hypnozoite quantity,[1]; [9],> 10 µM
same,EC50 schizont net growth area,[1]; [9],> 0.37 µM
same,CC20 hepatic nuclei,[2]; [9],> 10 µM
same,maximum inhibition,[3]; [9],68.3%
